# Reference: patent US20220411422A1, “ERBB RECEPTOR INHIBITORS” (Dizal (Jiangsu) Pharmaceutical Co., Ltd., priority 2018, published 2022)
# Assay: Clinical study on safety in patients with HER2+ MBC
# Format: in vivo, human
# From the text: […] All patients had prior anti-HER2 antibody and chemotherapy treatment. Majority of patients ([…]) also had prior anti-HER2 small molecule treatment.
# [1] = 100 mg (N = 4), CTCAE Grade All
# [2] = 200 mg (N = 5), CTCAE Grade All
# [3] = HER2+ MBC patients, oral twice daily, doses tested
# [4] = Total (N = 14), CTCAE Grade All
compound,measurement,setting,value
"COc1cc(O[C@H]2CCN(C)CC2(F)F)c2c(Nc3ccc(Oc4ccn5ncnc5c4)c(C)c3)ncnc2c1 (single isomer, unassigned) [Compound 6]","TEAE Anaemia, patients","25 mg (N = 1), CTCAE Grade All",0
same,"TEAE Aspartate aminotransferase increased, patients","25 mg (N = 1), CTCAE Grade All",0
same,"TEAE Bilirubin conjugated increased, patients","25 mg (N = 1), CTCAE Grade All",0
same,"TEAE Blood bilirubin increased, patients","25 mg (N = 1), CTCAE Grade All",1
same,"TEAE Blood bilirubin unconjugated increased, patients","25 mg (N = 1), CTCAE Grade All",1
same,"TEAE Blood creatinine increased, patients","25 mg (N = 1), CTCAE Grade All",0
same,"TEAE Fatigue, patients","25 mg (N = 1), CTCAE Grade All",0
same,"TEAE Haemoglobin decreased, patients","25 mg (N = 1), CTCAE Grade All",0
same,"TEAE Headache, patients","25 mg (N = 1), CTCAE Grade All",0
same,"TEAE Lipase increased, patients","25 mg (N = 1), CTCAE Grade All",0
same,"TEAE Pain, patients","25 mg (N = 1), CTCAE Grade All",0
same,"TEAE Platelet count decreased, patients","25 mg (N = 1), CTCAE Grade All",0
same,"TEAE Proteinuria, patients","25 mg (N = 1), CTCAE Grade All",0
same,"TEAE Vomiting, patients","25 mg (N = 1), CTCAE Grade All",0
same,"TEAE Anaemia, patients","25 mg (N = 1), CTCAE Grade ≥3",0
same,"TEAE Aspartate aminotransferase increased, patients","25 mg (N = 1), CTCAE Grade ≥3",0
same,"TEAE Bilirubin conjugated increased, patients","25 mg (N = 1), CTCAE Grade ≥3",0
same,"TEAE Blood bilirubin increased, patients","25 mg (N = 1), CTCAE Grade ≥3",0
same,"TEAE Blood bilirubin unconjugated increased, patients","25 mg (N = 1), CTCAE Grade ≥3",0
same,"TEAE Blood creatinine increased, patients","25 mg (N = 1), CTCAE Grade ≥3",0
same,"TEAE Fatigue, patients","25 mg (N = 1), CTCAE Grade ≥3",0
same,"TEAE Haemoglobin decreased, patients","25 mg (N = 1), CTCAE Grade ≥3",0
same,"TEAE Headache, patients","25 mg (N = 1), CTCAE Grade ≥3",0
same,"TEAE Lipase increased, patients","25 mg (N = 1), CTCAE Grade ≥3",0
same,"TEAE Pain, patients","25 mg (N = 1), CTCAE Grade ≥3",0
same,"TEAE Platelet count decreased, patients","25 mg (N = 1), CTCAE Grade ≥3",0
same,"TEAE Proteinuria, patients","25 mg (N = 1), CTCAE Grade ≥3",0
same,"TEAE Vomiting, patients","25 mg (N = 1), CTCAE Grade ≥3",0
same,"TEAE Anaemia, patients","50 mg (N = 4), CTCAE Grade All",1
same,"TEAE Aspartate aminotransferase increased, patients","50 mg (N = 4), CTCAE Grade All",1
same,"TEAE Bilirubin conjugated increased, patients","50 mg (N = 4), CTCAE Grade All",0
same,"TEAE Blood bilirubin increased, patients","50 mg (N = 4), CTCAE Grade All",0
same,"TEAE Blood bilirubin unconjugated increased, patients","50 mg (N = 4), CTCAE Grade All",0
same,"TEAE Blood creatinine increased, patients","50 mg (N = 4), CTCAE Grade All",1
same,"TEAE Fatigue, patients","50 mg (N = 4), CTCAE Grade All",0
same,"TEAE Haemoglobin decreased, patients","50 mg (N = 4), CTCAE Grade All",1
same,"TEAE Headache, patients","50 mg (N = 4), CTCAE Grade All",1
same,"TEAE Lipase increased, patients","50 mg (N = 4), CTCAE Grade All",2
same,"TEAE Pain, patients","50 mg (N = 4), CTCAE Grade All",1
same,"TEAE Platelet count decreased, patients","50 mg (N = 4), CTCAE Grade All",1
same,"TEAE Proteinuria, patients","50 mg (N = 4), CTCAE Grade All",1
same,"TEAE Vomiting, patients","50 mg (N = 4), CTCAE Grade All",0
same,"TEAE Anaemia, patients","50 mg (N = 4), CTCAE Grade ≥3",0
same,"TEAE Aspartate aminotransferase increased, patients","50 mg (N = 4), CTCAE Grade ≥3",0
same,"TEAE Bilirubin conjugated increased, patients","50 mg (N = 4), CTCAE Grade ≥3",0
same,"TEAE Blood bilirubin increased, patients","50 mg (N = 4), CTCAE Grade ≥3",0
same,"TEAE Blood bilirubin unconjugated increased, patients","50 mg (N = 4), CTCAE Grade ≥3",0
same,"TEAE Blood creatinine increased, patients","50 mg (N = 4), CTCAE Grade ≥3",0
same,"TEAE Fatigue, patients","50 mg (N = 4), CTCAE Grade ≥3",0
same,"TEAE Haemoglobin decreased, patients","50 mg (N = 4), CTCAE Grade ≥3",0
same,"TEAE Headache, patients","50 mg (N = 4), CTCAE Grade ≥3",0
same,"TEAE Lipase increased, patients","50 mg (N = 4), CTCAE Grade ≥3",0
same,"TEAE Pain, patients","50 mg (N = 4), CTCAE Grade ≥3",0
same,"TEAE Platelet count decreased, patients","50 mg (N = 4), CTCAE Grade ≥3",0
same,"TEAE Proteinuria, patients","50 mg (N = 4), CTCAE Grade ≥3",0
same,"TEAE Vomiting, patients","50 mg (N = 4), CTCAE Grade ≥3",0
same,"TEAE Anaemia, patients",[1],2
same,"TEAE Aspartate aminotransferase increased, patients",[1],0
same,"TEAE Bilirubin conjugated increased, patients",[1],0
same,"TEAE Blood bilirubin increased, patients",[1],0
same,"TEAE Blood bilirubin unconjugated increased, patients",[1],0
same,"TEAE Blood creatinine increased, patients",[1],0
same,"TEAE Fatigue, patients",[1],1
same,"TEAE Haemoglobin decreased, patients",[1],0
same,"TEAE Headache, patients",[1],2
same,"TEAE Lipase increased, patients",[1],0
same,"TEAE Pain, patients",[1],0
same,"TEAE Platelet count decreased, patients",[1],1
same,"TEAE Proteinuria, patients",[1],0
same,"TEAE Vomiting, patients",[1],1
same,"TEAE Anaemia, patients","100 mg (N = 4), CTCAE Grade ≥3",0
same,"TEAE Aspartate aminotransferase increased, patients","100 mg (N = 4), CTCAE Grade ≥3",0
same,"TEAE Bilirubin conjugated increased, patients","100 mg (N = 4), CTCAE Grade ≥3",0
same,"TEAE Blood bilirubin increased, patients","100 mg (N = 4), CTCAE Grade ≥3",0
same,"TEAE Blood bilirubin unconjugated increased, patients","100 mg (N = 4), CTCAE Grade ≥3",0
same,"TEAE Blood creatinine increased, patients","100 mg (N = 4), CTCAE Grade ≥3",0
same,"TEAE Fatigue, patients","100 mg (N = 4), CTCAE Grade ≥3",0
same,"TEAE Haemoglobin decreased, patients","100 mg (N = 4), CTCAE Grade ≥3",0
same,"TEAE Headache, patients","100 mg (N = 4), CTCAE Grade ≥3",0
same,"TEAE Lipase increased, patients","100 mg (N = 4), CTCAE Grade ≥3",0
same,"TEAE Pain, patients","100 mg (N = 4), CTCAE Grade ≥3",0
same,"TEAE Platelet count decreased, patients","100 mg (N = 4), CTCAE Grade ≥3",0
same,"TEAE Proteinuria, patients","100 mg (N = 4), CTCAE Grade ≥3",0
same,"TEAE Vomiting, patients","100 mg (N = 4), CTCAE Grade ≥3",0
same,"TEAE Anaemia, patients",[2],1
same,"TEAE Aspartate aminotransferase increased, patients",[2],1
same,"TEAE Bilirubin conjugated increased, patients",[2],2
same,"TEAE Blood bilirubin increased, patients",[2],2
same,"TEAE Blood bilirubin unconjugated increased, patients",[2],1
same,"TEAE Blood creatinine increased, patients",[2],1
same,"TEAE Fatigue, patients",[2],1
same,"TEAE Haemoglobin decreased, patients",[2],3
same,"TEAE Headache, patients",[2],1
same,"TEAE Lipase increased, patients",[2],1
same,"TEAE Pain, patients",[2],1
same,"TEAE Platelet count decreased, patients",[2],1
same,"TEAE Proteinuria, patients",[2],2
same,"TEAE Vomiting, patients",[2],2
same,"TEAE Anaemia, patients","200 mg (N = 5), CTCAE Grade ≥3",0
same,"TEAE Aspartate aminotransferase increased, patients","200 mg (N = 5), CTCAE Grade ≥3",0
same,"TEAE Bilirubin conjugated increased, patients","200 mg (N = 5), CTCAE Grade ≥3",1
same,"TEAE Blood bilirubin increased, patients","200 mg (N = 5), CTCAE Grade ≥3",0
same,"TEAE Blood bilirubin unconjugated increased, patients","200 mg (N = 5), CTCAE Grade ≥3",0
same,"TEAE Blood creatinine increased, patients","200 mg (N = 5), CTCAE Grade ≥3",0
same,"TEAE Fatigue, patients","200 mg (N = 5), CTCAE Grade ≥3",0
same,"TEAE Haemoglobin decreased, patients","200 mg (N = 5), CTCAE Grade ≥3",0
same,"TEAE Headache, patients","200 mg (N = 5), CTCAE Grade ≥3",0
same,"TEAE Lipase increased, patients","200 mg (N = 5), CTCAE Grade ≥3",0
same,"TEAE Pain, patients","200 mg (N = 5), CTCAE Grade ≥3",0
same,"TEAE Platelet count decreased, patients","200 mg (N = 5), CTCAE Grade ≥3",0
same,"TEAE Proteinuria, patients","200 mg (N = 5), CTCAE Grade ≥3",0
same,"TEAE Vomiting, patients","200 mg (N = 5), CTCAE Grade ≥3",0
same,dose limiting toxicities,[3],no dose limiting toxicities observed
same,tolerability,[3],well tolerated
same,"TEAE Anaemia, patients",[4],4
same,"TEAE Aspartate aminotransferase increased, patients",[4],2
same,"TEAE Bilirubin conjugated increased, patients",[4],2
same,"TEAE Blood bilirubin increased, patients",[4],3
same,"TEAE Blood bilirubin unconjugated increased, patients",[4],2
same,"TEAE Blood creatinine increased, patients",[4],2
same,"TEAE Fatigue, patients",[4],2
same,"TEAE Haemoglobin decreased, patients",[4],4
same,"TEAE Headache, patients",[4],4
same,"TEAE Lipase increased, patients",[4],3
same,"TEAE Pain, patients",[4],2
same,"TEAE Platelet count decreased, patients",[4],3
same,"TEAE Proteinuria, patients",[4],3
same,"TEAE Vomiting, patients",[4],3
same,"TEAE Anaemia, patients","Total (N = 14), CTCAE Grade ≥3",0
same,"TEAE Aspartate aminotransferase increased, patients","Total (N = 14), CTCAE Grade ≥3",0
same,"TEAE Bilirubin conjugated increased, patients","Total (N = 14), CTCAE Grade ≥3",1
same,"TEAE Blood bilirubin increased, patients","Total (N = 14), CTCAE Grade ≥3",0
same,"TEAE Blood bilirubin unconjugated increased, patients","Total (N = 14), CTCAE Grade ≥3",0
same,"TEAE Blood creatinine increased, patients","Total (N = 14), CTCAE Grade ≥3",0
same,"TEAE Fatigue, patients","Total (N = 14), CTCAE Grade ≥3",0
same,"TEAE Haemoglobin decreased, patients","Total (N = 14), CTCAE Grade ≥3",0
same,"TEAE Headache, patients","Total (N = 14), CTCAE Grade ≥3",0
same,"TEAE Lipase increased, patients","Total (N = 14), CTCAE Grade ≥3",0
same,"TEAE Pain, patients","Total (N = 14), CTCAE Grade ≥3",0
same,"TEAE Platelet count decreased, patients","Total (N = 14), CTCAE Grade ≥3",0
same,"TEAE Proteinuria, patients","Total (N = 14), CTCAE Grade ≥3",0
same,"TEAE Vomiting, patients","Total (N = 14), CTCAE Grade ≥3",0
